{
  "source": "patent US7018641B1",
  "about": "“Materials and methods for the control of plant pathogens” (priority 2000, dated 2006)",
  "key": {"Ralstonia solanacearum [1]": {"system": "Ralstonia solanacearum", "assay_type": "cell-based"}, "Ralstonia solanacearum [2]": {"system": "Ralstonia solanacearum", "assay_type": "cell-based", "remark": "listed apart in the source"}},
  "data": [
    {"smiles": "Cc1ccc(C(C)C)c(O)c1", "note": "[Thymol, thymol]", "values": [
      {"measurement": "inhibition of the development of R. solanacearum colonies", "setting": "Ralstonia solanacearum [1]; 100 μg/ml concentration, FIG. 2", "value": "entirely inhibited"},
      {"measurement": "efficacy against Rs", "setting": "Ralstonia solanacearum [1]; tested in vitro and in greenhouse, vapor effect for the oils", "value": "effective"}
    ]},
    {"smiles": "CC(C)=CCC/C(C)=C/CO", "note": "[Geraniol, geraniol]", "values": [
      {"measurement": "reduction of population of Ralstonia solanacearum", "setting": "Ralstonia solanacearum [2]; compared to untreated control", "value": 89.5, "unit": "%"},
      {"measurement": "volatile bactericidal activity", "setting": "Ralstonia solanacearum [2]; in words", "value": "volatile bactericidal activity"}
    ]}
  ]
}
